Source: patent US8541585B2, “N-acyl cyclic amine derivative or pharmaceutically acceptable salt thereof” (Dainippon Sumitomo Pharma Co., Ltd., priority 2010, dated 2013)

What was measured:
human D2L receptor = human D2L receptor (Homo sapiens, UniProt P14416); test: Dopamine D2L receptor binding assay ([3H]-spiperone); settings: 10 nM test drug; [3H]-spiperone 0.5 nM; human D2L receptor-expressing CHO cell membrane; read-out: BINDING INHIBITION RATE (%) D2L 10 nM
Description: (1) Dopamine D2L Receptor Binding Assay
D2L receptor binding assay was performed in reference to a method described by Hirose et al. (Japan. J. Pharmacol., 53, 321-329, 1990). After a reaction in a total volume of 200 μL of 50 mM Tris-HCl (pH=7.6) buffer solution containing 50 μL of [^3H]-spiperone (final concentration 0.5 nM), 1 μL of test drug in DMSO, and 149 μL of human D2L receptor-expressing CHO cell membrane sample, human D2L receptor binding activity of [^3H]-spiperone was measured. The reaction solution let stand for 60 minutes at room temperature, and then it was quickly added on a glass fiber filter plate (Multiscreen FB, Millipore inc.) coated with 0.3% polyethyleneimine (PEI) and filtered under reduced pressure. The glass fiber filter was washed with 200 μL of ice-cooled 50 mM Tris-HCl (pH=7.6) twice, repeatedly filtered under reduced pressure, and then transferred to a vial containing 4 mL of Ecoscint A (National Diagnostics inc.). The residual radioactivity on the glass fiber filter was measured by a liquid scintillation counter. Nonspecific binding was measured in the presence of 10 μM of spiperone, and [^3H]-spiperone binding inhibition rate in the presence of 10 nM of test drug was determined. The larger binding inhibition rate (%) means that test drug has the higher binding affinity for human D2L receptor.

human α1D receptor = target: T1, human α1D receptor (Homo sapiens, UniProt P25100); test: Adrenaline α1D receptor binding assay ([3H]-prazosin); settings: 100 nM test drug; [3H]-prazosin 0.6 nM; human α1D receptor-expressing CHO cell membrane; read-out: BINDING INHIBITION RATE (%) α1D 100 nM
T1 construct: expressed in transfected cells; host or cells: CHO cells (membrane preparation)
T1 sequence (P25100 1-572): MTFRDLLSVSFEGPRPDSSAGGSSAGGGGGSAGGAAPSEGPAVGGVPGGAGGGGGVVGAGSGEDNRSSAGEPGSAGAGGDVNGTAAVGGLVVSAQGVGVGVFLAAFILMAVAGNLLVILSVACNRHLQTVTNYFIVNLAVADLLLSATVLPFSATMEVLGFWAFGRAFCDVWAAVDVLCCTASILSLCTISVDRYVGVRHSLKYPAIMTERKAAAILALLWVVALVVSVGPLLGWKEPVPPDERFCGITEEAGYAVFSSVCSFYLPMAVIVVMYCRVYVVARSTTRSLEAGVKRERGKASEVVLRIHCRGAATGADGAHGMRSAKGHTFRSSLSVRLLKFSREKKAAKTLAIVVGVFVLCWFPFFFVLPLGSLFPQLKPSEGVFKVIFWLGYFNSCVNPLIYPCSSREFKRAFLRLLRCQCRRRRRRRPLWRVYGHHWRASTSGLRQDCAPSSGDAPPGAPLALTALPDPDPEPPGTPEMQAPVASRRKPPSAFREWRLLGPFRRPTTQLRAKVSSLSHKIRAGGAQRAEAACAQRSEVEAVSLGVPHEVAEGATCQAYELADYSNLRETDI
Description: (4) Adrenaline α1D Receptor Binding Assay
After a reaction in a total volume of 200 μL of 50 mM Tris-HCl (pH=7.6) buffer solution containing 50 μL of [^3H]-prazosin (final concentration 0.6 nM), 1 μL of test drug in DMSO, and 149 μL of human α1D receptor-expressing CHO cell membrane sample, human α1D receptor binding activity of [^3H]-prazosin was measured. The reaction solution let stand for 30 minutes at room temperature, and then it was quickly added on a glass fiber filter plate (Multiscreen FB, Millipore inc.) coated with 0.3% polyethyleneimine (PEI) and filtered under reduced pressure. The glass fiber filter was washed with 200 μL of ice-cooled 50 mM Tris-HCl (pH=7.6) twice, repeatedly filtered under reduced pressure, and then transferred to a vial containing 4 mL of Ecoscint A (National Diagnostics inc.). The residual radioactivity on the glass fiber filter was measured by a liquid scintillation counter. Nonspecific binding was measured in the presence of 1 μM of prazosin, and [^3H]-prazosin binding inhibition rate in the presence of 100 nM of test drug was determined.

human 5-HT2A receptor = target: T2, human 5-HT2A receptor (Homo sapiens, UniProt P28223); test: Serotonin 5-HT2A receptor binding assay ([3H]-ketanserin); settings: [3H]-ketanserin 1 nM, human 5-HT2A receptor-expressing CHO cell membrane; for inhibition at 0.001 µM: 1 nM test drug, read-out: BINDING INHIBITION RATE (%) 5HT2A 1 nM; for inhibition at 0.01 µM: 10 nM test drug, read-out: BINDING INHIBITION RATE (%) 5HT2A 10 nM
T2 construct: expressed in transfected cells; host or cells: CHO cells (membrane preparation)
T2 sequence (P28223 whole entry): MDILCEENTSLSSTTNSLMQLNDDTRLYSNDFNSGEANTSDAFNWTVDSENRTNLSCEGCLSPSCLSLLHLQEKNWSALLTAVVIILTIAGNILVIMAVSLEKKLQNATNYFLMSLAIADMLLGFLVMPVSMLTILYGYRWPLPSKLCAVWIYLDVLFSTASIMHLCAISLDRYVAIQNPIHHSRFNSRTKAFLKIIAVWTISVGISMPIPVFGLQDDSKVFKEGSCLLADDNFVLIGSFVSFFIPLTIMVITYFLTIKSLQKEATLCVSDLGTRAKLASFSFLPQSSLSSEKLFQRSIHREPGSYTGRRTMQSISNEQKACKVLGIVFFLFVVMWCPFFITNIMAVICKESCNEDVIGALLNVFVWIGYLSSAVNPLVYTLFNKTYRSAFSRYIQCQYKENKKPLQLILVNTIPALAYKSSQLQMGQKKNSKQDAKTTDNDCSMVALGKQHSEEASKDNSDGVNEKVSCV
Description: (2) Serotonin 5-HT2A Receptor Binding Assay
5-HT2A receptor binding assay was performed in reference to a method described by Hirose et al. (Japan. J. Pharmacol., 53, 321-329, 1990). After a reaction in a total volume of 200 μL of 50 mM Tris-HCl (pH=7.6) buffer solution containing 50 μL of [^3H]-ketanserin (final concentration 1 nM), 1 μL of test drug in DMSO, and 149 μL of human 5-HT2A receptor-expressing CHO cell membrane sample, human 5-HT2A receptor binding activity of [^3H]-ketanserin was measured. The reaction solution let stand for 15 minutes at 37° C., and then it was quickly added on a glass fiber filter plate (Multiscreen FB, Millipore inc.) coated with 0.05% Brij 35 and filtered under reduced pressure. The glass fiber filter was washed with 200 μL of ice-cooled 50 mM Tris-HCl (pH=7.6) twice, repeatedly filtered under reduced pressure, and then transferred to a vial containing 4 mL of Ecoscint A (National Diagnostics inc.). The residual radioactivity on the glass fiber filter was measured by a liquid scintillation counter. Nonspecific binding was measured in the presence of 10 μM of MDL-100907, and [^3H]-ketanserin binding inhibition rate in the presence of 1 nM or 10 nM of test drug was determined.

human 5-HT6 receptor = target: T3, human 5-HT6 receptor (Homo sapiens, UniProt P50406); test: Serotonin 5-HT6 receptor binding assay ([3H]-clozapine); settings: 100 nM test drug; [3H]-clozapine 2 nM; human 5-HT6 receptor-expressing CHO cell membrane; read-out: BINDING INHIBITION RATE (%) 5HT6 100 nM
T3 construct: expressed in transfected cells; host or cells: CHO cells (membrane preparation)
T3 sequence (P50406 whole entry): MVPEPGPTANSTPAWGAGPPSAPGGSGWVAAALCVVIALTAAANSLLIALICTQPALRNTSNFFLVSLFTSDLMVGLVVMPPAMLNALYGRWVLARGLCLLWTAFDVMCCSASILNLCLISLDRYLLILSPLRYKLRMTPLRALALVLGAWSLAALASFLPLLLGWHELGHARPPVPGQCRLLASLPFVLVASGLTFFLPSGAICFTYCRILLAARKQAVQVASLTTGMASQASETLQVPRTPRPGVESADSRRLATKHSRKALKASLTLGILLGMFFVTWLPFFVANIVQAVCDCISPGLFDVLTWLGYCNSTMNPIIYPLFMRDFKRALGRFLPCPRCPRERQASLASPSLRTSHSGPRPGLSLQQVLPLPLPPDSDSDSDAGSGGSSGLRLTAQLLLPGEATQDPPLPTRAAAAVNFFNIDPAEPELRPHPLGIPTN
Description: (3) Serotonin 5-HT6 Receptor Binding Assay
After a reaction in a total volume of 200 μL of 50 mM Tris-HCl (pH=7.6), 4 mM CaCl2, and 0.5 mM EDTA buffer solution containing 50 μL of [^3H]-clozapine (final concentration 2 nM), 1 μL of test drug in DMSO, and 149 μL of human 5-HT6 receptor-expressing CHO cell membrane sample, human 5-HT6 receptor binding activity of [^3H]-clozapine was measured. The reaction solution let stand for 40 minutes at room temperature, and then it was quickly added on a glass fiber filter plate (Multiscreen FB, Millipore inc.) coated with 0.3% polyethyleneimine (PEI) and filtered under reduced pressure. The glass fiber filter was washed with 200 μL of ice-cooled 50 mM Tris-HCl (pH=7.6) twice, repeatedly filtered under reduced pressure, and then transferred to a vial containing 4 mL of Ecoscint A (National Diagnostics inc.). The residual radioactivity on the glass fiber filter was measured by a liquid scintillation counter. Nonspecific binding was measured in the presence of 10 μM of SB-258585, and [^3H]-clozapine binding inhibition rate in the presence of 100 nM of test drug was determined.

Sequence of human D2L receptor (P14416 whole entry): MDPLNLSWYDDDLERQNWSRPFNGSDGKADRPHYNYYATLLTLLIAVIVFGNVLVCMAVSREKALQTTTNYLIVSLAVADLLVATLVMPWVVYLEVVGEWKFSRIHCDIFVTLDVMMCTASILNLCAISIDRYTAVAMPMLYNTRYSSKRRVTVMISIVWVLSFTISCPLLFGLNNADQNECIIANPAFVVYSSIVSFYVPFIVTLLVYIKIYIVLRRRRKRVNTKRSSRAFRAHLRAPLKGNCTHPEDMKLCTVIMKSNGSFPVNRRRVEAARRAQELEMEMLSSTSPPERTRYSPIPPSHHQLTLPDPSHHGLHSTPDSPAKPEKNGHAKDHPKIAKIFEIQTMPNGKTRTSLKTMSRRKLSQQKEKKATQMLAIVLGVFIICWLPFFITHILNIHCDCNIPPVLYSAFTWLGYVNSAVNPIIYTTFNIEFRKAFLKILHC

SMILES | inhibition at 0.01 µM (human D2L receptor) | inhibition at 0.1 µM (human α1D receptor) | inhibition at 0.001 µM (human 5-HT2A receptor) | inhibition at 0.1 µM (human 5-HT6 receptor) | inhibition at 0.01 µM (human 5-HT2A receptor)
Cc1ccc2cc(C(=O)N3CCC[C@H]3CCN3CCN(c4n[nH]c5ccccc45)CC3)[nH]c2c1 [Example 2, (S)-(2-(2-(4-(1H-Indazol-3-yl)piperazin-1-yl)ethyl)pyrrolidin-1-yl)(6-methyl-1H-indol-2-yl)methanone] | 73% | 63% | 65% | 95% | 
Cc1ccc2cc(C(=O)N3CCC[C@H]3CCN3CCC(N4CCc5cc(F)ccc54)CC3)[nH]c2c1 [Example 3] | 80% | 74% | 65% | 94% | 
O=C(/C=C/c1ccc2c(c1)OCO2)N1CCC[C@@H](CCN2CCN(c3nsc4ccccc34)CC2)C1 [Example 4, (S,E)-3-(Benzo[d][1,3]-5-dioxolyl)-1-(3-(2-(4-(benzo[d]isothiazo-3-yl)piperazin-1-yl)ethyl)piperidin-1-yl)-2-propen-1-one] | 73% | 30% |  | 65% | 96%
Cc1ccc2cc(C(=O)N3CCC[C@H]3CCN3CCC(c4c[nH]c5cc(F)ccc45)CC3)[nH]c2c1 [Example 5] | 83% | 70% | 72% | 98% | 
Cc1ccc2cc(C(=O)N3CCC[C@H]3CCN3CCC(c4noc5cc(F)ccc45)CC3)[nH]c2c1 [Example 6, (S)-(2-(2-(4-(6-Fluorobenzo[d]isoxazol-3-yl)piperidin-1-yl)ethyl)pyrrolidin-1-yl)(6-methyl-1H-indol-2-yl)methanone] | 91% | 71% | 61% | 94% | 
O=C(c1cc2cc(F)ccc2[nH]1)N1CCOC[C@H]1CCN1CCC(c2c[nH]c3ccccc23)CC1 [Example 7, (R)-(3-(2-(4-(1H-Indol-3-yl)piperidin-1-yl)ethyl)morpholino)(5-fluoro-1H-indol-2-yl)methanone] | 85% | 86% |  | 97% | 100%
Cc1ccc2[nH]c(C(=O)N3CCC[C@H]3CCN3CCC(c4coc5ccccc45)CC3)cc2c1 [Example 8, (S)-(2-(2-(4-(Benzofuran-3-yl)piperidin-1-yl)ethyl)pyrrolidin-1-yl)(5-methyl-1H-indol-2-yl)methanone] | 76% | 62% |  | 93% | 92%
O=C(/C=C/c1ccc2c(c1)OCO2)N1CCCC[C@H]1CCN1CCN(c2cccc3ccccc23)CC1 [Example 9] | 32% | 5% |  | 61% | 94%
Cc1ccc2cc(C(=O)N3CCC[C@H]3CCN3CCC(n4ccc5ccc(F)cc54)CC3)[nH]c2c1 [Example 10] | 52% | 12% | 37% | 74% | 
Cc1ccc2cc(C(=O)N3CCC[C@H]3CCN3CCN(c4nccc5ccccc45)CC3)[nH]c2c1 [Example 11] | 69% | 5% | 64% | 86% | 
Cc1ccc2cc(C(=O)N3CCC[C@H]3CCN3CCC(N4CCCc5ccccc54)CC3)[nH]c2c1 [Example 12] | 59% | 43% | 28% | 84% | 
Cc1ccc2cc(C(=O)N3CCC[C@H]3CCN3CCN(c4nsc5cc(F)ccc45)CC3)[nH]c2c1 [Example 13] | 72% | 60% | 34% | 93% | 
COc1ccc2cc(C(=O)N3CCOC[C@H]3CCN3CCC(c4noc5cc(F)ccc45)CC3)[nH]c2c1 [Example 15] | 84% | 74% | 76% | 79% | 94%
O=C(/C=C/c1ccc2c(c1)OCO2)N1CCC[C@@H](CN2CCC(c3noc4cc(F)ccc34)CC2)C1 [Example 16] | 97% | 91% |  | 87% | 93%
O=C(/C=C/c1ccc2c(c1)OCO2)N1CCC[C@H](CN2CCC(c3noc4cc(F)ccc34)CC2)C1 [Example 17] | 84% | 92% |  | 93% | 99%
O=C(/C=C/c1ccc2c(c1)OCO2)N1CC[C@H]1CCN1CCC(c2noc3cc(F)ccc23)CC1 [Example 18] | 54% | 102% |  | 74% | 100%
Cc1ccc2cc(C(=O)N3CCC[C@H]3CCN3CCN(c4noc5cc(F)ccc45)CC3)[nH]c2c1 [Example 21] | 73% | 55% | 41% | 94% | 
Cc1ccc2cc(C(=O)N3CCCC[C@H]3CCN3CCN(c4n[nH]c5ccccc45)CC3)[nH]c2c1 [Example 23] | 62% | 34% | 34% | 75% | 
